Assays:
[1] = test system: Plasmodium falciparum; assay: Antimalarial activity against multi-drug-resistant Plasmodium falciparum W2 infected in human type A+ erythrocytes assessed as growth inhibition after 72 hrs by SYBR Green I assay; format: functional, organism-based; settings: W2, 72 h
[2] = test system: Plasmodium falciparum; assay: Antimalarial activity against multi-drug-resistant Plasmodium falciparum TM90-C2B infected in human type A+ erythrocytes assessed as growth inhibition after 72 hrs by SYBR Green I assay; format: functional, organism-based
[3] = Resistance index, ratio of EC50 for multi-drug-resistant Plasmodium falciparum TM90-C2B infected in human type A+ erythrocytes to EC50 for multi-drug-resistant Plasmodium falciparum W2 infected in human type A+ erythrocytes; format: functional
[4] = test system: J774; assay: Cytotoxicity against mouse J774 cells after 72 hrs by CellTiter 96 assay; format: cell-based; settings: J774, 72 h
[5] = Cytotoxicity index, ratio of EC50 for mouse J774 cells to EC50 for multi-drug-resistant Plasmodium falciparum TM90-C2B infected in human type A+ erythrocytes; format: toxicity, cell-based; settings: read-out: Ratio EC50
[6] = octanol/water, pH 7.4

Compound: COc1cc2[nH]c(C)c(-c3ccc(C)cc3)c(=O)c2cc1Cl
- EC50 [1]: 0.0245 µM
- EC50 [2]: 0.00733 µM
- Ratio EC50 [3]: 0.3
- EC50 [4]: > 31.9 µM
- selectivity ratio [5]: > 4350

Compound: COc1cc2[nH]c(C)c(-c3ccc(C)cc3C)c(=O)c2cc1Cl
- EC50 [1]: 0.00915 µM
- EC50 [2]: 0.00317 µM
- Ratio EC50 [3]: 0.35
- EC50 [4]: 3.74 µM
- selectivity ratio [5]: 1180

Compound: COc1cc2[nH]c(C)c(-c3c(C)cc(C)cc3C)c(=O)c2cc1Cl
- EC50 [1]: 0.046 µM
- EC50 [2]: 0.0463 µM
- Ratio EC50 [3]: 1.01
- EC50 [4]: 2.99 µM
- selectivity ratio [5]: 64.6

Compound: CCc1ccccc1-c1c(C)[nH]c2cc(OC)c(Cl)cc2c1=O
- EC50 [1]: 0.0617 µM
- EC50 [2]: 0.16 µM
- Ratio EC50 [3]: 2.59
- EC50 [4]: 16.2 µM
- selectivity ratio [5]: 102

Compound: COc1cc2[nH]c(C)c(-c3ccc(C(C)C)cc3)c(=O)c2cc1Cl
- EC50 [1]: 0.00665 µM
- EC50 [2]: 0.00267 µM
- Ratio EC50 [3]: 0.4
- EC50 [4]: > 29.3 µM
- selectivity ratio [5]: > 11000

Compound: COc1cc2[nH]c(C)c(-c3ccc(C(C)(C)C)cc3)c(=O)c2cc1Cl
- EC50 [1]: 0.0668 µM
- EC50 [2]: 0.116 µM
- EC50 [4]: > 28.1 µM

Compound: COc1cc2[nH]c(C)c(-c3ccccn3)c(=O)c2cc1Cl
- EC50 [1]: 0.928 µM
- EC50 [2]: 0.214 µM
- Ratio EC50 [3]: 0.23
- EC50 [4]: > 33.3 µM
- selectivity ratio [5]: > 156

Compound: COc1cc2[nH]c(C)c(-c3cncnc3)c(=O)c2cc1Cl
- EC50 [1]: 2.99 µM
- EC50 [2]: 1.36 µM
- Ratio EC50 [3]: 0.45
- EC50 [4]: > 33.1 µM
- selectivity ratio [5]: > 24.4

Compound: COc1cc2[nH]c(C)c(-c3ccoc3)c(=O)c2cc1Cl
- EC50 [1]: 0.0133 µM
- EC50 [2]: 0.00185 µM
- Ratio EC50 [3]: 0.14
- EC50 [4]: > 34.5 µM
- selectivity ratio [5]: > 18600

Compound: COc1cc2[nH]c(C)c(-c3c(C)noc3C)c(=O)c2cc1Cl
- EC50 [1]: 1.06 µM
- EC50 [2]: 0.629 µM
- Ratio EC50 [3]: 0.59
- EC50 [4]: > 31.4 µM
- selectivity ratio [5]: > 49.9

Compound: COc1cc2[nH]c(C)c(-c3ccc4nonc4c3)c(=O)c2cc1Cl
- EC50 [1]: 1.97 µM
- EC50 [2]: 0.0806 µM
- Ratio EC50 [3]: 0.04
- EC50 [4]: > 29.3 µM
- selectivity ratio [5]: > 363

Compound: COc1cc2[nH]c(C)c(-c3cc4ccccc4o3)c(=O)c2cc1Cl
- EC50 [1]: 0.133 µM
- EC50 [2]: 0.138 µM
- Ratio EC50 [3]: 1.04
- EC50 [4]: > 29.4 µM
- selectivity ratio [5]: > 214

Compound: COc1cc2[nH]c(C)c(-c3cc4ccccc4s3)c(=O)c2cc1Cl
- EC50 [1]: 0.0718 µM
- EC50 [2]: 0.0248 µM
- Ratio EC50 [3]: 0.35
- EC50 [4]: > 28.1 µM
- selectivity ratio [5]: > 1130

Compound: COc1cc2[nH]c(C)c(-c3ccc4c(c3)OCCO4)c(=O)c2cc1Cl
- EC50 [1]: 0.173 µM
- EC50 [2]: 0.0919 µM
- Ratio EC50 [3]: 0.53
- EC50 [4]: > 27.9 µM
- selectivity ratio [5]: > 304

Compound: COc1cc2[nH]c(C)c(-c3cccc4c3oc3ccccc34)c(=O)c2cc1Cl
- EC50 [1]: 0.049 µM
- EC50 [2]: 0.0336 µM
- Ratio EC50 [3]: 0.68
- EC50 [4]: > 25.7 µM
- selectivity ratio [5]: > 765

Compound: COc1cc2[nH]c(C)c(-c3ccc(C=O)cc3)c(=O)c2cc1Cl
- EC50 [1]: 5.52 µM
- EC50 [2]: > 3.81 µM
- Ratio EC50 [3]: 0.7
- EC50 [4]: > 30.5 µM

Compound: COc1cc2[nH]c(C)c(-c3ccc(C(C)=O)cc3)c(=O)c2cc1Cl
- EC50 [1]: 0.777 µM
- EC50 [2]: 0.0484 µM
- Ratio EC50 [3]: 0.06
- EC50 [4]: > 29.3 µM
- selectivity ratio [5]: > 605

Compound: COc1cc2[nH]c(C)c(-c3ccc(C(=O)O)cc3)c(=O)c2cc1Cl
- EC50 [1]: 0.517 µM
- EC50 [2]: 0.0731 µM
- Ratio EC50 [3]: 0.14
- EC50 [4]: > 29.1 µM
- selectivity ratio [5]: > 398

Compound: COC(=O)c1ccc(-c2c(C)[nH]c3cc(OC)c(Cl)cc3c2=O)cc1
- EC50 [1]: 0.0225 µM
- EC50 [2]: 0.026 µM
- Ratio EC50 [3]: 1.16
- EC50 [4]: > 27.9 µM
- selectivity ratio [5]: > 1080

Compound: COc1cc2[nH]c(C)c(-c3ccc(N(C)C)cc3)c(=O)c2cc1Cl
- EC50 [1]: 0.0607 µM
- EC50 [2]: 0.0153 µM
- Ratio EC50 [3]: 0.25
- selectivity ratio [5]: > 1900

Compound: COc1cc2[nH]c(C)c(-c3ccc(S(=O)(=O)N(C)C)cc3)c(=O)c2cc1Cl
- EC50 [1]: 1.89 µM
- EC50 [2]: 0.152 µM
- Ratio EC50 [3]: 0.08
- EC50 [4]: > 24.6 µM
- selectivity ratio [5]: > 162

Compound: COc1cc2[nH]c(C)c(-c3ccc(O)cc3)c(=O)c2cc1Cl
- EC50 [1]: 2.86 µM
- EC50 [2]: 0.467 µM
- Ratio EC50 [3]: 0.16
- EC50 [4]: > 31.7 µM
- selectivity ratio [5]: > 67.8

Compound: COc1cc2[nH]c(C)c(-c3ccccc3CO)c(=O)c2cc1Cl
- EC50 [1]: 0.258 µM
- EC50 [2]: 0.277 µM
- Ratio EC50 [3]: 1.08
- EC50 [4]: > 30.3 µM
- selectivity ratio [5]: > 109

Compound: COc1cc2[nH]c(C)c(-c3cccc(CO)c3)c(=O)c2cc1Cl
- EC50 [1]: 5.4 µM
- EC50 [2]: 0.829 µM
- Ratio EC50 [3]: 0.15
- EC50 [4]: > 30.3 µM
- selectivity ratio [5]: > 36.6

Compound: COc1cc2[nH]c(C)c(-c3ccc(OCc4ccccc4)cc3)c(=O)c2cc1Cl
- EC50 [1]: 0.0106 µM
- EC50 [2]: 0.00128 µM
- Ratio EC50 [3]: 0.12
- EC50 [4]: > 24.6 µM
- selectivity ratio [5]: > 19300

Compound: COc1cc2[nH]c(C)c(-c3ccc(COc4ccccc4)cc3)c(=O)c2cc1Cl
- EC50 [1]: 0.0013 µM
- EC50 [2]: 0.000638 µM
- Ratio EC50 [3]: 0.49

Compound: COc1cc2[nH]c(C)c(-c3c(F)cccc3F)c(=O)c2cc1Cl
- EC50 [1]: 0.0357 µM
- EC50 [2]: 0.00864 µM
- Ratio EC50 [3]: 0.24
- EC50 [4]: > 29.8 µM
- selectivity ratio [5]: > 3450

Compound: COc1cc2[nH]c(C)c(-c3cc(C(F)(F)F)cc(C(F)(F)F)c3)c(=O)c2cc1Cl
- EC50 [1]: 1.68 µM
- EC50 [2]: 0.449 µM
- Ratio EC50 [3]: 0.27
- EC50 [4]: > 22.9 µM
- selectivity ratio [5]: > 51.1

Compound: COc1cc2[nH]c(C)c(-c3ccc(C(F)(F)F)cc3F)c(=O)c2cc1Cl
- EC50 [1]: 0.0214 µM
- EC50 [2]: 0.0104 µM
- Ratio EC50 [3]: 0.48
- EC50 [4]: > 25.9 µM
- selectivity ratio [5]: > 2500

Compound: CCOc1cc(-c2c(C)[nH]c3cc(OC)c(Cl)cc3c2=O)ccc1F
- EC50 [1]: 0.194 µM
- EC50 [2]: 0.0258 µM
- Ratio EC50 [3]: 0.13
- EC50 [4]: > 27.6 µM
- selectivity ratio [5]: > 1070

Compound: COc1cc2[nH]c(C)c(-c3ccc(OC)c(F)c3F)c(=O)c2cc1Cl
- EC50 [1]: 0.157 µM
- EC50 [2]: 0.403 µM
- Ratio EC50 [3]: 2.57
- EC50 [4]: > 27.3 µM
- selectivity ratio [5]: > 67.8

Compound: COc1cc2[nH]c(C)c(-c3ccccc3OC(F)(F)F)c(=O)c2cc1Cl
- EC50 [1]: 0.443 µM
- EC50 [2]: 1.91 µM
- Ratio EC50 [3]: 4.32
- EC50 [4]: > 30.2 µM
- selectivity ratio [5]: > 15.8

Compound: COc1cc2[nH]c(C)c(-c3ccc(OCc4ccc(F)cc4)cc3)c(=O)c2cc1Cl
- EC50 [1]: 0.00518 µM
- EC50 [2]: 0.00156 µM
- EC50 [4]: > 23.6 µM

Compound: C(=C\c1ccccc1)/CN1CCN(C(c2ccccc2)c2ccccc2)CC1 [CINNARIZINE]
- logD [6]: 5.68

Compound: CC(C)(C)NCC(O)COc1cccc2c1CC(O)C(O)C2 (stereo not given) [NADOLOL]
- logD [6]: 0.68

Compound: Cn1c(=O)c2[nH]cnc2n(C)c1=O.O [THEOPHYLLINE]
- logD [6]: -5

— ChEMBL document CHEMBL3351419, “Orally bioavailable 6-chloro-7-methoxy-4(1H)-quinolones efficacious against multiple stages of Plasmodium” (J Med Chem, 2014)
